Numbers after ± are expanded uncertainties.
Assays:
[1] = Crystal; DTA
[2] = Molar enthalpy of transition or fusion; settings: Crystal; DSC
[3] = molar heat capacity at constant pressure; settings: 298.15 K; 101.33 kPa; Crystal; Small sample (50 mg) DSC

Structure (SMILES) | Normal melting temperature [1] [°C] | Molar enthalpy of transition or fusion [2] [kcal/mol] | molar heat capacity at constant pressure [3] [J/K/mol]
Nc1ccccc1S(N)(=O)=O [2-aminobenzenesulfonamide] | 153.46 ± 0.39 | 5.6 ± 0.129 | 173.93 ± 21
Nc1ccc(S(N)(=O)=O)cc1 [4-aminobenzenesulfonamide] | 164.53 ± 0.39 | 5.33 ± 0.122 | 199.76 ± 10
NS(=O)(=O)c1ccccc1 [benzenesulfonamide] | 152.32 ± 0.39 | 5.67 ± 0.131 | 172.91 ± 9.4
Cc1ccccc1S(N)(=O)=O [o-toluenesulfonamide] |  | 6.75 ± 0.179 | 193.48 ± 21
Cc1ccc(S(N)(=O)=O)cc1 [p-toluenesulfonamide] | 137.27 ± 0.39 | 5.72 ± 0.174 | 205.46 ± 14

From the NIST ThermoML archive (doi:10.1016/j.jct.2011.11.026)
